Assay results taken from patent publication US20160166532A1, “CARNITINE PALMITOYLTRANSFERASE 1 INHIBITORS FOR INHIBITION OF PATHOLOGICAL ANGIOGENESIS” (VIB VZW, priority 2013, published 2016).
Where two headings read alike, the source gives them in different places.

What was measured:
[1] = system: EC spheroids; test: In vitro EC spheroid sprouting assay; assay type: cell-based
Excerpt: (§1) In angiogenic EC monolayers, CPT1a knock down (KD) reduced EC proliferation by 40% as measured by ^3H thymidine incorporation (see FIG. 2). Furthermore, CPT1a KD EC were found more frequently in the G0/G1 phase of the cell cycle. EC migration on the other hand was not affected as measured by scratch wound assay and modified Boyden chamber even when proliferation was blocked using mitomycin C (see FIG. 3). To study the effect of CPT1a KD on vessel sprouting, an in vitro EC spheroid sprouting assay was employed. In this model, EC are cultured in suspension to form spheroids in hanging drops, embedded in a collagen I matrix and subsequently stimulated with growth factors to allow sprouts to be formed. In this model, a tip cell with filopodia leads the sprout while the stalk cells trail behind and proliferate to elongate the sprout. […] To further investigate this observation, a mosaic spheroid model was employed to assess tip cell competition. Here, 50% WT^RED and 50% WT^GFP cells are mixed and, when the spheroids have sprouted, which one is at the tip is determined. In this model, tip cell position can be determined via migration and/or proliferation. In case of a WT/WT mixture, 50% green and 50% red cells are at the tip. However, when 50% WT^RED cells are mixed with 50% CPT1a^KD/GFP cells, less green cells were present at the tip. This effect was abrogated when spheroids were treated with mitomycin C.

[2] = Palmitate uptake and incorporation in organs; assay type: in vivo, mice; details: pups
[3] = Tolerability in etomoxir-treated pups (body weight, heart H&E staining); assay type: in vivo, mice
[4] = system: choroidal neovascularization (CNV) in male C57BL/6 mice; test: Laser-induced choroidal neovascularization (CNV) model; assay type: in vivo; details: 35 mg/kg i.p. daily, two weeks, vs vehicle
Excerpt: The protein extravasation and hemorrhage associated with choroidal neovascularization (CNV) are primary causes of severe vision loss in retinal diseases such as age-related macular degeneration (ARMD). In ARMD the normal barrier function of Bruch's membrane is compromised, and CNV can develop, either under the retinal pigment epithelium (RPE) or photoreceptor outer segments. The choroidal neovascularization model serves as a reliable disease model for macular degeneration. Choroidal neovascularization (CNV) is induced in mice by laser burn. Laser burn (400 mW) is performed with Alcon PUREPOINT® equipment. CNV is measured by investigators masked to treatment. Eyes are enucleated after retrobulbar perfusion with FITC-dextran (HMW) and flat mounted. The CNV area, total lesion area, and their ratio are analyzed using Zeiss Axio Imager Z1 microscope with macros (KS300 image analysis software) on FITC-perfused (200 μL; 25 mg/mL; 10 minutes) flat mounts. The intraocular administration of siRNAs directed against CPT1a or the use of chemical inhibitors against CPT1a, is carried out, prior to or shortly after the induction of the laser burn, in the above-described murine model for age-related macular degeneration. […]

[5] = system: endothelial cells (ECs); test: 3H palmitate oxidation assay (fatty acid oxidation, 3H-9,10-palmitic acid tracer); assay type: cell-based
Excerpt: (§2) CPT1 enzymes are rate limiting for fatty acid oxidation and, of the three isoforms, CPTla is the most abundant in ECs. To explore the functional relevance of CPT1a in ECs, its expression was compared in quiescent versus angiogenic EC monolayers. Strikingly, CPT1a RNA and protein levels were increased during contact inhibition—an in vitro model of quiescence—when compared to proliferating/migrating ECs. […] To correlate these expression levels to functional relevance, fatty acid oxidation was measured using a ^3H-9,10-palmitic acid tracer. […] To confirm that fatty acid oxidation in ECs is primarily CPT1a driven, its expression was blocked using a shRNA directed against CPT1a. The shRNA sequence used was 5′-[…] […]-3′ (SEQ ID NO:1).
(§3) Even more, using notch signaling as a model of quiescence, the notch-induced increase in FAO was abrogated upon CPT1a KD.

[6] = biological target: T1, CPT1a (Homo sapiens, UniProt P50416); test: CPT1a protein levels after shRNA knock down in ECs; assay type: cell-based
T1 construct: of the three isoforms, CPTla is the most abundant in ECs; endogenous in cells; host or cells: endothelial cells (ECs)
T1 sequence (P50416 1-773): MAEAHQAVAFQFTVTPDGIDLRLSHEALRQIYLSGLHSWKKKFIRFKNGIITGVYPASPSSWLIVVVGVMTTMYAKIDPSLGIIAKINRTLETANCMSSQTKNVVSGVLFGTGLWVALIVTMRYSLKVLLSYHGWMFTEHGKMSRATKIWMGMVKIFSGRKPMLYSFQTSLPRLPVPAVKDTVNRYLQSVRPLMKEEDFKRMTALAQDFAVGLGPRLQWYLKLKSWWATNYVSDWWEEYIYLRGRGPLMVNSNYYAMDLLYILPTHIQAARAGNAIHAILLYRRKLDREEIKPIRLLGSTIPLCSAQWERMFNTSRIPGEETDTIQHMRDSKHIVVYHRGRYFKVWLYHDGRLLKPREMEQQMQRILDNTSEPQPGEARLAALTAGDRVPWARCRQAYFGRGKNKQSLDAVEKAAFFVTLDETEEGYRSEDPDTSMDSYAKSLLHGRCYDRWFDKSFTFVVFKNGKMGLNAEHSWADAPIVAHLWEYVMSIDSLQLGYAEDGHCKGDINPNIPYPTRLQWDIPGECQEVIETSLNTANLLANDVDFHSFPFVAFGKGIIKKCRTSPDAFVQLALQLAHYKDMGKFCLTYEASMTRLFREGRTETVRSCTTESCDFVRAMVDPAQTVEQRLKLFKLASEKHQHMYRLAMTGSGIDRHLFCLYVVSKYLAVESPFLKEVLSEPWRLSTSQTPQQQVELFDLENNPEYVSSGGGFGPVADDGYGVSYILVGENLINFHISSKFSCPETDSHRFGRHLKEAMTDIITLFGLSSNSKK
Excerpt: as §2, §3

[7] = system: angiogenic EC monolayers; test: 3H thymidine incorporation assay (EC proliferation); assay type: cell-based
Excerpt: as §1, with “This effect was abrogated when spheroids were treated with mitomycin C.” left out

[8] = system: ECs; test: Scratch wound assay and modified Boyden chamber (EC migration); assay type: cell-based; details: scratch wound assay, modified Boyden chamber
Excerpt: as §1, with “This effect was abrogated when spheroids were treated with mitomycin C.” left out

[9] = system: ECs; test: Energy charge, ATP levels and AMPK phosphorylation in ECs; assay type: cell-based
Excerpt: Next, how fatty acid oxidation could exert its proliferation-dependent effects on vessel sprouting was questioned. Through fueling the TCA with […] molecules of acetyl-COA, 1 palmitate can generate much more ATP via oxidative phosphorylation compared to 1 glucose. However, as was shown previously, angiogenic ECs rely primarily on glycolysis for ATP production. Nevertheless, it was desired to rule out that the CPT1a-induced proliferation defect was caused by ATP depletion. […] One would also expect that whenever cells are in ATP distress, they would up-regulate a major ATP-producing pathway. […] Furthermore, no signs of energy distress were observed, as shown by AMPK-p, and no induction of autophagy was observed as measured by LC3.

[10] = system: ECs; test: Intracellular H2O2 levels in ECs; assay type: cell-based
Excerpt: Proliferation requires many building blocks such as protein, RNA, DNA, . . . to allow duplication of one cell into two daughter cells. Up until now, the role of mitochondria in ECs was thought to be for signaling purposes and not so much for biomass production, as ECs are highly glycolytic. […] FAO can fuel the TCA cycle with […] molecules of acetyl COA, thereby providing plenty of intermediates for biomass as well as producing NADPH that can be used for anti-oxidant defense or lipid synthesis. […] However, this increase in ROS could not explain the proliferation defect as no DNA damage checkpoint was activated in these cells as measured by ATM-P, p53 and p21 levels. […] Therefore, it was hypothesized that blocking FAO would reduce TCA intermediates needed for biomass production. Even more, using ^13C palmitate, it was shown that CPT1a KD cells incorporate less 13C label in TCA intermediates and in biomass.

In the case of CC(=O)N[C@@H](CS)C(=O)O [NAC], the “rescue of reduced sprouting upon CPT1a silencing in quiescent spheroids” value ([1]; NICD overexpression model of quiescence) is reported as “did rescue the phenotype”.

With CC(=O)O [acetate] the “rescue of reduced sprouting of CPT1a knock down spheroids” value ([1]; 20 mM supplementation) was “rescued”.

For CCOC(=O)[C@@]1(CCCCCCOc2ccc(Cl)cc2)CO1 [etomoxir], the “14C palmitate uptake in organs” value [2] was “significantly reduced”, the “incorporation of 13C palmitate in TCA intermediates in organs” value [2] was “significantly reduced” and the “defects in the heart (H&E staining)” value [3] was “did not cause any defects in the heart”. For the same compound, the “reduction of neovascularization area” value [4] was “less than 50%” and the “pathological neovascular area (in words)” value ([4]; p<0.05) was “reduced the pathological neovascular area”.

With “shCPT1a: shRNA directed against CPT1a, SEQ ID NO:1: 5'-CCGGGCCATGAAGCTCTTAGACAAACTCGAGTTTGTCTAAGAGCTTCATGGCTTTTTG-3'” the fatty acid oxidation [5] was “reduced fatty acid oxidation”, the fatty acid oxidation ([5]; listed as shRNA directed against CPT1a) was “significantly reduced” and the CPT1a protein levels [6] was “nearly undetectable levels”. For the same compound, the “proliferation (in words)” value [7] was “reduced proliferation”, the “reduction of EC proliferation” value ([7]; angiogenic EC monolayers) was 40% and the EC migration [8] was “no differences in migration”. The EC migration ([8]; listed as CPT1a KD) was “not affected”, the “vessel sprouting of EC spheroids” value ([1]; collagen I matrix, growth factor stimulated) was “fewer and shorter sprouts” and the “ATP distress (Western blot for AMPK phosphorylation)” value [9] was “does not show any ATP distress”. For the same compound, the energy charge [9] was “did not affect” and the “increase in intracellular H2O2 levels” value [10] was 40%.
